Test results published in patent publication US20010047099A1, “4-aminopicolinates and their use as herbicides” (priority 2000, published 2001).

Legend:
[1] = system: velvetleaf (Abutilon theophrasti); test: Preemergence herbicidal activity; format: in vivo; conditions: Abutilon theophrasti, 504 h, Table 6 (headed Post-emergent; text: preemergence), after 3 weeks, read-out: % Control ABUTH; for pest or weed control at 280 ppm: rate 280 ppm; for pest or weed control at 70 ppm: rate 70 ppm; for pest or weed control at 560 ppm: rate 560 ppm
From the text: (§1) Seeds of the desired test plant species were planted in a soil matrix prepared by mixing a loam soil (43 percent silt, 19 percent clay, and 38 percent sand, with a pH of about 8.1 and an organic matter content of bout 1.5 percent) and sand in a 70 to 30 ratio. The soil matrix was contained in plastic pots with a surface area of 113 square centimeters. When required to ensure good germination and healthy plants. a fungicide treatment and/or other chemical or physical treatment was applied.
(§2) A weighed amount, determined by the highest rate to be tested, of each test compound was placed in a 20 mL glass vial and was dissolved in 4 mL of a 97:3 v/v (volume/volume) mixture of acetone and dimethyl sulfoxide to obtain concentrated stock solutions. […] The stock solutions obtained were diluted with a 99.9:0.1 mixture of water and Tween® […] surfactant to obtain application solutions of known concentration. The solutions containing the highest concentration to be tested were prepared by diluting 2 mL aliquots of the stock solution with 15 mL of the mixture and lower concentrations were prepared by serial dilution of the stock solution. A 2.5 mL aliquot of each solution of known concentration was sprayed evenly onto the soil surface (113 sq. cm) of each seeded pot using a Cornwall 5.0 mL glass syringe fitted with a TeeJet TN-3 hollow cone nozzle to obtain thorough coverage of the soil in each pot. Control pots were sprayed in the same manner with the aqueous mixture.
(§3) The treated pots and control pots were placed in a greenhouse maintained with an approximate 15 hr photoperiod and temperatures of about 23-29° C. during the day and 22-28° C. during the night. Nutrients and water were added on a regular basis and supplemental lighting was provided with overhead metal halide 1000-Watt lamps as necessary. The water was added by top-irrigation. After 3 weeks the condition of the test plants that germinated and grew as compared with that of the untreated plants that germinated and grew was determined visually and scored on a scale of 0 to 100 percent where 0 corresponds to no injury and 100 corresponds to complete kill or no germination.

[2] = system: pigweed (Amaranthus retroflexus); test: Preemergence herbicidal activity; format: in vivo; conditions: Amaranthus retroflexus, 504 h, Table 6 (headed Post-emergent; text: preemergence), after 3 weeks, read-out: % Control AMARE; for pest or weed control at 280 ppm: rate 280 ppm; for pest or weed control at 70 ppm: rate 70 ppm; for pest or weed control at 560 ppm: rate 560 ppm
From the text: as §1, §2, §3

[3] = system: morningglory (Ipomoea hederacea); test: Preemergence herbicidal activity; format: in vivo; conditions: Ipomoea, 504 h, Table 6 (headed Post-emergent; text: preemergence), after 3 weeks, read-out: % Control IPOHE; for pest or weed control at 280 ppm: rate 280 ppm; for pest or weed control at 70 ppm: rate 70 ppm; for pest or weed control at 560 ppm: rate 560 ppm
From the text: as §1, §2, §3

[4] = system: White Clover (Trifolium repens); test: Range & Pasture Crop Testing (postemergence track sprayer); format: in vivo; conditions: Table 10
Method: (§4) By applying the well-accepted probit analysis as described by J. Berkson in Journal of the […], 48, 565 (1953) and by D. Finney in “Probit Analysis” Cambridge University Press (1952), the above data can be used to calculate GR50 and GR80 values, which are defined as growth reduction factors that correspond to the effective dose of herbicide required to kill or control 50 percent or 80 percent, respectively, of a target plant.
(§5) Rates are calculated based upon 5 doses being applied. The high rate (X), followed by serial dilutions of 1/2×, 1/4×, 1/8× and 1/16×. Compound requirements are based upon the 187 L/ha carrier volume, specifications of the delivery system (Mandel track sprayer) and generating 24 mL of technical spray material to allow for the dilutions and overage in the sprayer. [formula]
(§6) All technical materials were formulated in 97:3 (acetone:DMSO) with 0.25% X-77. The total volume of solvent is maintained at less than 7%. An overhead Mandel track sprayer calibrated to deliver 187 L/ha was used for all treatment applications (postemergence). Picloram was included as a comparison treatment.
(§7) Solutions were applied with a mechanized track-sprayer at the following settings:
(§8) Spray height: 17 inches above top of plants
(§9) This provides an application volume of 187 L/ha.
(§10) Percent weed control (burn down) was evaluated 3 weeks after treatment. Visual control on a 0-100 linear scale was used, with 0 representing no control and 100 representing total control. Burn down ratings were taken for annual and perennial weed species.

[5] = system: field bindweed (Convolvulus arvensis); test: as above; format: in vivo; conditions: Table 10; clover pasture; postemergence
Method: as §4, §5, §6, §7, §8, §9, §10

[6] = system: Canada thistle (Cirsium arvense); test: as above; format: in vivo; conditions: Table 10; clover pasture; postemergence
Method: as §4, §5, §6, §7, §8, §9, §10

[7] = system: wild buckwheat (Polygonum convolvulus); test: Postemergence herbicidal activity; format: in vivo; conditions: Fallopia convolvulus, post-emergence, 336 h, Table 1, visual, after 2 weeks, read-out: Post-emergent % Control POLCO; for pest or weed control at 250 ppm: rate 250 ppm
Method: (§11) Seeds of the desired test plant species were planted in Grace-Sierra MetroMix® 306 planting mixture, which typically has a pH of 6.0 to 6.8 and an organic matter content of about 30 percent, in plastic pots with a surface area of 64 square centimeters. When required to ensure good germination and healthy plants, a fungicide treatment and/or other chemical or physical treatment was applied. The plants were grown for 7-21 days in a greenhouse with an approximate 15 hr photoperiod which was maintained at about 23-29° C. during the day and 22-28° C. during the night. Nutrients and water were added on a regular basis and supplemental lighting was provided with overhead metal halide 1000-Watt lamps as necessary. The plants were employed for testing when they reached the first or second true leaf stage.
(§12) A weighed amount, determined by the highest rate to be tested, of each test compound was placed in a 20 mL glass vial and was dissolved in 4 mL of a 97:3 v/v (volume/volume) mixture of acetone and dimethyl sulfoxide (DMSO) to obtain concentrated stock solutions. […] The concentrated stock solutions obtained were diluted with an aqueous mixture containing acetone, water, isopropyl alcohol, DMSO, Atplus 411F crop oil concentrate, and Triton X-155 surfactant in a 48.5:39:10:1.5:1.0:0.02 v/v ratio to obtain spray solutions of known concentration. The solutions containing the highest concentration to be tested were prepared by diluting 2 mL aliquots of the stock solution with 13 mL of the mixture and lower concentrations were prepared by serial dilution of the stock solution. Approximately 1.5 mL aliquots of each solution of known concentration were sprayed evenly onto each of the test plant pots using a DeVilbiss atomizer driven by compressed air pressure of 2 to 4 psi ([…]) to obtain thorough coverage of each plant. Control plants were sprayed in the same manner with the aqueous mixture. In this test an application rate of 1 ppm results in the application of approximately 1 g/Ha.
(§13) The treated plants and control plants were placed in a greenhouse as described above and watered by sub-irrigation to prevent wash-off of the test compounds. After 2 weeks the condition of the test plants as compared with that of the untreated plants was determined visually and scored on a scale of 0 to 100 percent where 0 corresponds to no injury and 100 corresponds to complete kill.

[8] = system: chickweed (Stellaria media); test: Postemergence herbicidal activity; format: in vivo; conditions: Stellaria media, post-emergence, 336 h, Table 1, visual, after 2 weeks, read-out: Post-emergent % Control STEME; for pest or weed control at 250 ppm: rate 250 ppm
Method: as §11, §12, §13

[9] = system: cocklebur (Xanthium strumarium); test: Postemergence herbicidal activity; format: in vivo; conditions: Xanthium strumarium, post-emergence, 336 h, Table 1, visual, after 2 weeks, read-out: Post-emergent % Control XANST; for pest or weed control at 250 ppm: rate 250 ppm
Method: as §11, §12, §13

SMILES	melting point [°C]	pest or weed control at 280 ppm [1] [%]	pest or weed control at 280 ppm [2] [%]	pest or weed control at 280 ppm [3] [%]	GR20 TRFRE [4] [g/ha]	GR80 CONAR [5] [g/ha]	GR80 CIRAR [6] [g/ha]	pest or weed control at 125 ppm ([7]; rate 125 ppm) [%]	pest or weed control at 125 ppm ([8]; rate 125 ppm) [%]	pest or weed control at 125 ppm ([9]; rate 125 ppm) [%]	pest or weed control at 250 ppm [7] [%]	pest or weed control at 250 ppm [8] [%]	pest or weed control at 250 ppm [9] [%]	pest or weed control at 70 ppm [1] [%]	pest or weed control at 70 ppm [2] [%]	pest or weed control at 70 ppm [3] [%]	pest or weed control at 560 ppm [1] [%]	pest or weed control at 560 ppm [2] [%]	pest or weed control at 560 ppm [3] [%]
CCCOC(=O)c1nc(Cl)cc(N)c1Cl [Compound 5, n-propyl 4-amino-3,6-dichloropyridine-2-carboxylate]	94 to 95	100	100	100	<17.5	140.1	<17.5	100	100	100	–	–	–	–	–	–	–	–	–
CCCCOC(=O)c1nc(Cl)cc(N)c1Cl [Compound 7, n-butyl 4-amino-3,6-dichloropyridine-2-carboxylate]	78 to 79	100	100	100	15.3	116.6	17.3	–	–	–	100	100	100	–	–	–	–	–	–
Nc1cc(Oc2cc(Cl)cc(Cl)c2)nc(C(=O)O)c1Cl [Compound 47, 4-Amino-3-chloro-6-(3,5-dichlorophenoxy)pyridine-2-carboxylic acid]	196	95	100	0	–	–	–	–	–	–	100	100	100	–	–	–	–	–	–
Nc1cc(Oc2ccccc2)nc(C(=O)O)c1Cl [Compound 48, 4-amino-3-chloro-6-phenoxypyridine-2-carboxylic acid]	178	100	30	100	–	–	–	–	–	–	100	60	100	–	–	–	–	–	–
COc1ccc(Oc2cc(N)c(Cl)c(C(=O)O)n2)cc1 [Compound 49, 4-amino-3-chloro-6-(4-methoxyphenoxy)-pyridine-2-carboxylic acid]	174	–	–	–	–	–	–	–	–	–	70	0	60	0	0	0	–	–	–
Cc1ccc(Oc2cc(N)c(Cl)c(C(=O)O)n2)cc1 [Compound 50, 4-amino-3-chloro-6-(4-methylphenoxy)-pyridine-2-carboxylic acid]	173	–	–	–	–	–	–	–	–	–	70	0	60	0	0	0	–	–	–

Further lines, with some results ahead:

melting point [°C]	SMILES	pest or weed control at 280 ppm [1] [%]	pest or weed control at 280 ppm [2] [%]	pest or weed control at 280 ppm [3] [%]	GR20 TRFRE [4] [g/ha]	GR80 CONAR [5] [g/ha]	GR80 CIRAR [6] [g/ha]	pest or weed control at 125 ppm ([7]; rate 125 ppm) [%]	pest or weed control at 125 ppm ([8]; rate 125 ppm) [%]	pest or weed control at 125 ppm ([9]; rate 125 ppm) [%]	pest or weed control at 250 ppm [7] [%]	pest or weed control at 250 ppm [8] [%]	pest or weed control at 250 ppm [9] [%]	pest or weed control at 70 ppm [1] [%]	pest or weed control at 70 ppm [2] [%]	pest or weed control at 70 ppm [3] [%]	pest or weed control at 560 ppm [1] [%]	pest or weed control at 560 ppm [2] [%]	pest or weed control at 560 ppm [3] [%]
169	Cc1cccc(Oc2cc(N)c(Cl)c(C(=O)O)n2)c1 [Compound 52, 4-amino-3-chloro-6-(3-methylphenoxy)-pyridine-2-carboxylic acid]	–	–	–	–	–	–	–	–	–	90	20	70	–	–	–	50	20	70
176	Nc1cc(Oc2cccc(Cl)c2)nc(C(=O)O)c1Cl [Compound 53, 4-amino-3-chloro-6-(3-chlorophenoxy)-pyridine-2-carboxylic acid]	–	–	–	–	–	–	–	–	–	100	100	100	–	–	–	100	0	100
158 to 160	Nc1c(Cl)c(Oc2ccccc2)nc(C(=O)O)c1Cl [Compound 54, 4-Amino-3,5-dichloro-6-phenoxypyridine-2-carboxylic acid]	50	10	41	–	–	–	–	–	–	40	0	100	–	–	–	–	–	–
104 to 106	CC(C)COc1nc(C(=O)O)c(Cl)c(N)c1Cl [Compound 56, 4-Amino-3,5-dichloro-6-(2-methylpropoxy)pyridine-2-carboxylic acid]	–	–	–	–	–	–	–	–	–	20	30	85	–	–	–	40	0	0
